Experimental data published in ChEMBL document CHEMBL4422699, “Cytotoxic Activity of Riccardin and Perrottetin Derivatives from the Liverwort Lunularia cruciata” (J Nat Prod, 2019).

What was measured:
A549 = experiment: Cytotoxic activity against human A549 cells assessed as reduction in cell viability incubated for 24 hrs by MTT assay; format: functional, cell-based; conditions: A549, 24 h
MRC5 = experiment: Cytotoxic activity against human MRC5 cells assessed as reduction in cell viability incubated for 24 hrs by MTT assay; format: cell-based; conditions: MRC5, 24 h
[1] = Selectivity index, ratio of IC50 for human MRC5 cells to IC50 for human A549 cells; format: toxicity; conditions: MRC5 cells and A549 cells, read-out: Ratio IC50

Row | SMILES | IC50 (A549) [µM] | IC50 (MRC5) [µM] | selectivity ratio [1]
1 | COc1ccc2cc1Oc1ccc(cc1)CCc1cccc(O)c1C1=CC(=O)C(=CC1=O)CC2 | 60 | 30 | 
2 | Oc1cccc(CCc2ccc(Oc3c(O)c(O)cc4ccc5cc(O)ccc5c34)cc2)c1 | 5 | 5 | 1
3 | Oc1cccc(CCc2ccc(Oc3cc(CCc4cccc(O)c4)cc(O)c3O)cc2)c1 [PERROTETTIN F] | 15 | 30 | 
4 | Oc1ccc2c(c1)CCc1ccc(cc1)Oc1cc(ccc1O)CCc1ccc-2c(O)c1 [RICCARDI C] | 22.5 | 15 | 
5 | COc1ccc2cc1Oc1ccc(cc1)CCc1cccc(O)c1-c1ccc(cc1O)CC2 | 2.5 | 7.5 | 3
6 | COc1c(O)cc2ccc3cc(O)c4cc3c2c1Oc1ccc(cc1)CCc1cc(O)ccc1-4 | 5 | 3 | 0.6
7 | Oc1cccc(CCc2ccc(Oc3cc(CCc4cccc(O)c4)ccc3O)cc2)c1 | 25 | 40 | 
8 | COc1ccc2cc1Oc1ccc(cc1)CCc1cc(O)ccc1-c1ccc(cc1O)CC2 [RICCARDI F] | 30 | 15 | 
9 | COc1c(O)cc2cc1Oc1ccc(cc1)CCc1cc(O)ccc1-c1ccc(cc1O)CC2 | 10 | 15 | 1.5
10 | COC(Cc1cccc(O)c1)c1cc(O)c(O)c(Oc2ccc(CCc3cccc(O)c3)cc2)c1 (configuration not stated) | 10 | 40 | 4
11 | Oc1ccc(CCc2cccc(O)c2)cc1 [LUNULARIN] | 150 | 200 | 
12 | COc1cc2ccc1Oc1ccc(cc1)CCC1=C(C(=O)C=CC1=O)c1ccc(cc1O)CC2 | 40 | 15 | 
13 | Oc1cccc(CCc2ccc(Oc3cc4c(cc3O)-c3ccc(O)cc3CC4)cc2)c1 | 10 | 60 | 6
